Results from patent USRE47954E1, “Combination therapy with peptide epoxyketones” (priority 2008, dated 2020).
Read-outs that look alike come from different tables or passages of the source.

How the values were obtained:
[1] = Method: Toxicity Studies: 4-6 weeks old female BNX mice were treated with chemotherapeutic agents of multiple classes as monotherapy or in combination with carfilzomib. Two weeks toxicity studies were performed at doses and dose schedules as mentioned in the figure legend. Toxicity was measured as body weight loss three times a week.
The dose schedule as shown in FIG. 2A was Doxil day 1 (iv), after one hour Compound 1 day 1, 2 (iv).
The dose schedule as shown in FIG. 5A was docetaxel day 1 (iv), after one hour Compound 1 day 1, 2 (iv).

RL human lymphoma cells = experiment: RL human lymphoma xenograft, Example 1 (FIG. 1); type: in vivo, Immunocompromised mice (BNX); conditions: Compound 1 IV Days 1 and 2 each week + SAHA IP Days 1-5 each week; two-way ANOVA, Bonferroni
Method: Immunocompromised mice (BNX, Charles River Laboratories) were challenged with subcutaneous administration of RL human lymphoma cells (1×10^7/mouse) on the right flank in a total volume of 0.1 mL phosphate buffered saline (PBS). When tumors were approximately 50 mm^3 in size (as indicated by the arrow in FIG. 1), mice were randomized to treatment groups (9 mice/group). Compound 1 was administered intravenously (IV) in a solution of 10% (w/v) sulfobutylether-betacyclodextrin in aqueous 10 mM citrate buffer pH 3.5. Administration was given on Days 1 and 2 each week. SAHA was formulated in 100% DMSO and administered intraperiotoneally (IP) on Days 1-5 each week. ***=P<0.001 (Compound 1+SAHA vs. Vehicle) by two-way ANOVA and Bonferroni post-hoc comparisons.

RL tumors = experiment: RL lymphoma xenograft, Example 2 (FIG. 9); type: in vivo, BNX mice
Method: (§1) Statistical significance was achieved when p<0.05.
(§2) The effect of the combination of Compound 1 (3 mg/kg) and vorinostat (50 mg/kg) (n=8/group) on established RL tumors is shown in FIG. 9 (arrow indicates start of dosing period). The effect of the combination of Compound 1 (3 mg/kg) and vorinostat (50 mg/kg) (n=8/group) on established ES2 tumors. **, P<0.01; and ***, P<0.001 vs monotherapy and vehicle is shown in FIG. 10 (arrow indicates start of dosing period).

[2] = tested on: A549 non-small cell lung cancer xenograft; experiment: A549 non-small cell lung cancer xenograft model (FIG. 4, 6, 7); type: in vivo, BNX mice
Method: (§3) Xenograft studies: Tumors were established by subcutaneous (s.c.) injection of cell lines (passage number <9 and viability >95% at the time of implantation) in the right flank of BNX mice (n=8/9 per group). RL (0.1 mL) cell suspensions containing 1×10^7 cells. 5×10^6 cell suspension (0.1 mL) were injected in case of HT-29, ES2 and A549 cells. Mice were randomized into treatment groups and dosing initiated when tumors size was approximately 100 mm^3. In all treatment groups, tumors were measured three times weekly by recording the longest perpendicular diameters and tumor volumes were calculated using the equation V (mm^3)=(length×width^2)/2.
(§4) Statistical analysis: For comparisons of treatment groups, a two-way ANOVA followed by Bonferroni post hoc analysis using GraphPad Prism Software (version 4.01) was performed. Statistical significance was achieved when p<0.05.

ES2 tumors = experiment: ES2 ovarian xenograft (FIG. 10); type: in vivo, BNX mice; conditions: in combination with vorinostat (50 mg/kg), ovarian cancer model
Method: as §1, §2

[3] = tested on: MM1.S (multiply myeloma, dexamethasone sensitive) cells; experiment: Cell titer glo viability, combination index with melphalan (FIG. 11); type: cell-based; conditions: Compound 1 6.58 nM + melphalan 11.1, 7.4, 4.9 and 3.3 μM; melphalan pretreatment 24 hours, then Compound 1 24 hours
Method: Compound 1 was tested at 6.58 nM in combination with melphalan at four different doses: 11.1, 7.4, 4.9 and 3.3 μM. MM1.S (multiply myeloma, dexamethasone sensitive) cells were plated at 200,000 cells/mL in 45 μL then pretreated with melphalan for 24 hours. Compound 1 was then added and the cells were incubated for an additional 24 hours at 6.58 nM. A 1:1 ratio of Cell titer glo solution was then added to the cell samples and read for viability. Combination index values were calculated using the Calcusyn program where values <0.9=synergy, 0.9-1.0=additive and >1.1=antagonistic.

[4] = tested on: relapsed multiple myeloma patients; experiment: Phase Ib dose escalation study of carfilzomib plus lenalidomide and low-dose dexamethasone; type: in vivo; conditions: preliminary
From the text: Within the first three cohorts, seventeen patients were evaluable for response and toxicity.

[5] = tested on: HT29 colorectal xenograft; experiment: HT29 colorectal xenograft model (FIG. 3)
Method: as §3, §4

[6] = combination of Compound 1 and vorinostat
[7] = combination Compound 1 (5 mg/kg) + Doxil (3 mg/kg)
[8] = combination Compound 1 at MTD (5 mg/kg) + docetaxel (5 mg/kg), FIG. 6
[9] = combination Compound 1 at sub-MTD (3 mg/kg) + sub-MTD docetaxel (5 mg/kg), FIG. 7

Q: For CC(=O)O[C@@]12CO[C@@H]1C[C@H](O)[C@@]1(C)C(=O)[C@H](O)C3=C(C)[C@@H](OC(=O)[C@H](O)[C@@H](NC(=O)OC(C)(C)C)c4ccccc4)C[C@@](O)([C@@H](OC(=O)c4ccccc4)[C@H]21)C3(C)C [docetaxel, reference compound], which MTD ([1]; docetaxel in combination with carfilzomib, docetaxel day 1 (iv), Compound 1 day 1, 2 (iv)) is on record?
A: 10 mg/kg

Q: Which results are given for CC(C)C[C@H](NC(=O)[C@H](CCc1ccccc1)NC(=O)CN1CCOCC1)C(=O)N[C@@H](Cc1ccccc1)C(=O)N[C@@H](CC(C)C)C(=O)[C@@]1(C)CO1 [Compound 1, carfilzomib]?
A: MTD ([1]; carfilzomib QDx2 (iv)): 5 mg/kg; tumor volume, P (Compound 1+SAHA vs. Vehicle) (RL human lymphoma cells): < 0.001; RL tumor growth, p vs. Compound 1 or vorinostat alone (RL tumors; [6]): < 0.01; RL tumor growth, p vs. control (RL tumors; [6]): < 0.001; lymphoma (RL) tumor growth (RL tumors; combination with vorinostat, compared to vehicle controls or either single agent, Compound 1 3 mg/kg, vorinostat 50 mg/kg): significant reduction; anti-tumor effect of combination (RL tumors; in combination with vorinostat, lymphoma model): synergistic anti-tumor effect; tumor size, p vs. control or Doxil alone [2, 7]: < 0.001; tumor size, significance vs. carfilzomib alone [2, 7]: No significance; tumor size, p vs. carfilzomib alone [2, 8]: < 0.05; tumor size, p vs. control [2, 8]: < 0.001; tumor size, p vs. carfilzomib and docetaxel [2, 9]: < 0.01; tumor size, p vs. control [2, 9]: < 0.001; A549 tumor growth ([2]; combination with docetaxel, compared to vehicle controls or either single agent): significant reduction; anti-tumor effect of combination ([2]; in combination with docetaxel at sub-MTD doses, human lung cancer model): synergistic anti-tumor effect; anti-tumor property of combination (ES2 tumors): effective anti-tumor property; combination effect (combination index, Calcusyn) [3]: synergistic and additive effects; maximum tolerated dose (MTD) ([4]; first three cohorts): not yet reached; Responses [4]: durable; anti-tumor effect of combination ([5]; Compound 1 and Doxil at sub-MTD doses, solid tumor model): synergistic anti-tumor effect; tumor burden ([5]; Compound 1 and Doxil combination, HT-29 xenograft model): significantly reduced tumor burden; anti-tumor activity ([5]; Compound 1 at MTD (5 mg/kg) and sub-MTD of Doxil (3 mg/kg)): increased anti-tumor activity; tumor size, p vs. Doxil alone [5, 7]: < 0.01; tumor size, p vs. control or carfilzomib alone [5, 7]: < 0.001
